Results as given in BindingDB's records for doi:10.1021/acs.jmedchem.8b00890 (Beijing Institute of Pharmacology and Toxicology, 2018).
Where a SMILES comes first, the peptide text is derived from it. [ ]: non-standard residue; d: D form. The star is where a group is joined. Palmitoyl = CCCCCCCCCCCCCCCC(=O)*; βAla = NCCC(=O)O

Assays:
[1] = Inhibition of Ebola virus Sudan envelope glycoprotein-mediated cell entry in human HuH7 cells treated with 30 mins pre-treated pseudovirus/compopund mixture and measured after 72 hrs by luciferase reporter assay
[2] = Inhibition of HIV1 envelope glycoprotein-mediated cell-cell fusion between HL2/3 cells stably expressing HIV Gag, Env, Tat, Rev and Nef proteins and human TZM-bl cells stably expressing high CD4 and CCR5 incubated for 6 to 8 hrs by luciferase reporter assay

**Q.** For `CCCCCCCCCCCCCCCC(=O)NCCCC[C@H](NC(=O)CCNC(=O)[C@H](CCCCN)NC(=O)[C@H](CCCCN)NC(=O)[C@H](CCC(N)=O)NC(=O)[C@@H](NC(=O)[C@H](CCC(=O)O)NC(=O)[C@H](CCC(=O)O)NC(=O)[C@@H](NC(=O)[C@H](CCCCN)NC(=O)[C@H](CCCCN)NC(=O)[C@H](CCC(N)=O)NC(=O)[C@@H](NC(=O)[C@H](CCC(=O)O)NC(=O)[C@H](CCC(=O)O)NC(=O)[C@@H](NC(=O)[C@H](CCCCN)NC(=O)[C@H](CCCCN)NC(=O)[C@H](CCC(N)=O)NC(=O)[C@@H](NC(=O)[C@H](CCC(=O)O)NC(=O)[C@H](CCC(=O)O)NC(=O)[C@@H](NC(=O)[C@H](CCCCN)NC(=O)[C@H](CCCCN)NC(=O)[C@H](CCC(N)=O)NC(=O)[C@@H](NC(=O)[C@H](CCC(=O)O)NC(=O)[C@H](CCC(=O)O)NC(=O)[C@@H](NC(=O)[C@H](CCCCN)NC(=O)[C@H](CCCCN)NC(=O)[C@H](CCC(N)=O)NC(=O)[C@@H](NC(=O)[C@H](CCC(=O)O)NC(=O)[C@H](CCC(=O)O)NC(=O)[C@@H](NC(C)=O)[C@@H](C)CC)[C@@H](C)CC)[C@@H](C)CC)[C@@H](C)CC)[C@@H](C)CC)[C@@H](C)CC)[C@@H](C)CC)[C@@H](C)CC)[C@@H](C)CC)[C@@H](C)CC)C(N)=O` (Ac-IEEIQKKIEEIQKKIEEIQKKIEEIQKKIEEIQKK[βAla]K(Palmitoyl)-NH2), which EC50 [1] is on record?
**A.** Its EC50 is 1020 nM.

**Q.** And the EC50 [2]?
**A.** The EC50 was 3.63 µM.
